Values of other authors, collected in patent publication US20240136011A1, “SYSTEM, METHOD, AND COMPUTER PROGRAM FOR PHYSICS-BASED BINDING AFFINITY ESTIMATION” (BOARD OF TRUSTEES OF THE UNIVERSITY OF ARKANSAS, priority 2022, published 2024).

Molecular target: human fibroblast growth factor 1 (hFGF1) (Homo sapiens, UniProt P05230)
Conditions: MM-GBSA; recent computational studies

Chain of human fibroblast growth factor 1 (hFGF1) (P05230 whole entry): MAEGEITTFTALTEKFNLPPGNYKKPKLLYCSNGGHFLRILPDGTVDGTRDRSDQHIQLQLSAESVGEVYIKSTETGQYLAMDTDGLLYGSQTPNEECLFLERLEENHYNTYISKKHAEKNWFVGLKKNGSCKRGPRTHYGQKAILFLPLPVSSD

## heparin hexasaccharide
  ΔG°: -95 ± 11 kcal/mol
